Reference: paper PMC4761905, “A Novel Heterocyclic Compound CE-104 Enhances Spatial Working Memory in the Radial Arm Maze in Rats and Modulates the Dopaminergic System” (Frontiers in Behavioral Neuroscience, 2016)

What was measured:
[1] = target: T1, dopamine transporter (DAT) (Homo sapiens, UniProt Q01959); test: [3H]dopamine uptake inhibition in HEK293 cells stably expressing human DAT; assay type: cell-based
T1 construct: gene SLC6A3

[2] = target: T2, norepinephrine transporter (NET) (Homo sapiens, UniProt P23975); test: [3H]MPP+ uptake inhibition in HEK293 cells stably expressing human NET; assay type: cell-based
T2 construct: gene SLC6A2
T2 sequence (P23975 whole entry): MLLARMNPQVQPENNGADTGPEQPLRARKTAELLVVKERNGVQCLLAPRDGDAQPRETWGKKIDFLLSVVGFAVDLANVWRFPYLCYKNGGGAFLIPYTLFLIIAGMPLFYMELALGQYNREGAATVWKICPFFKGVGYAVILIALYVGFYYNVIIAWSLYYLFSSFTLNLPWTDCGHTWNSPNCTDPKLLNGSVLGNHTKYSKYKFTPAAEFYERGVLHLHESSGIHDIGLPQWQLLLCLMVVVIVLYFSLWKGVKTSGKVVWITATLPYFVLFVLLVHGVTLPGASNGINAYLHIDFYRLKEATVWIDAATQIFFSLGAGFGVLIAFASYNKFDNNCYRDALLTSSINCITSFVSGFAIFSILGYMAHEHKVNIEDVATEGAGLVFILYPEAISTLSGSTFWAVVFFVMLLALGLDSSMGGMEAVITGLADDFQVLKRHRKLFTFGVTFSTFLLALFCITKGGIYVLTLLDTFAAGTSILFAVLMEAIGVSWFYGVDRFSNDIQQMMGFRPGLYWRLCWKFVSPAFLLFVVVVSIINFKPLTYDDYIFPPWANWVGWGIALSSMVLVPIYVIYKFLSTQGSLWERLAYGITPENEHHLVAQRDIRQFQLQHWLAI

T1 sequence (Q01959 whole entry): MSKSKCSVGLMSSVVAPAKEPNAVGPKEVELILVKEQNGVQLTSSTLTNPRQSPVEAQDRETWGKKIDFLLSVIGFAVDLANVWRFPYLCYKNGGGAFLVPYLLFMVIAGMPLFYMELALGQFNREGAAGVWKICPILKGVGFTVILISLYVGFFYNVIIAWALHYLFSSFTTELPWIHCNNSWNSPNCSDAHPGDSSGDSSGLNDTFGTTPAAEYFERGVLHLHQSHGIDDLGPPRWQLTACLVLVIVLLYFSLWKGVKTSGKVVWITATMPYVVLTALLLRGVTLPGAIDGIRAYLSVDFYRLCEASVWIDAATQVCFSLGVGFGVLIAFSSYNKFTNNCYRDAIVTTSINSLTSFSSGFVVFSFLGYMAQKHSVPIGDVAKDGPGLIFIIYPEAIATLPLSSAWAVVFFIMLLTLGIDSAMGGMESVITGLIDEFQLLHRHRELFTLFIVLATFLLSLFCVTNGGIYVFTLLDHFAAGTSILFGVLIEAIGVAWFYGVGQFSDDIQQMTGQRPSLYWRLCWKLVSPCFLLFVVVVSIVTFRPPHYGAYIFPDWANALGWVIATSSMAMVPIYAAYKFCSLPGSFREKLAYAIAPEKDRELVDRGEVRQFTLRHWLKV

Cc1csc(C[S+]([O-])C(c2ccccc2)c2ccccc2)n1 (racemic) [CE-104, 2-(benzhydrylsulfinylmethyl)-4-methylthiazole] gave an IC50 [1] of 27.9 µM and an IC50 [2] of 160 µM.
